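Dose response: 5 concentrations. Exposure: 48 h. Format: 96-well plates. Endpoint: linear interpolation; highest concentration if not reached. GI50 = concentration required for 50% inhibition of growth. TGI: concentration producing complete growth inhibition.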

Some test systems named below: A549 NSCLC; ACHN renal; EKVX NSCLC; HOP-62 NSCLC; HOP-92 NSCLC; NCI-H23 lung; SF-268 CNS; SF-539 CNS; SK-OV-3 ovarian; SNB-19 CNS.
What all share (assay): NCI anticancer screen, dose series, 48 h

For `CC(C)(C)N1CC(OC(N)=O)C1`, the GI50 with A549 NSCLC, with ACHN renal, in the test with EKVX NSCLC, in the test with HOP-62 NSCLC, with HOP-92 NSCLC and in the test with NCI-H23 lung was > 100 µM in each case. Also, the GI50 in the test on SF-268 CNS, with SF-539 CNS, in the test on SK-OV-3 ovarian and with SNB-19 CNS was > 100 µM throughout. In addition, the TGI in the test on A549 NSCLC, with ACHN renal, with EKVX NSCLC, in the test on HOP-62 NSCLC, in the test with HOP-92 NSCLC and with NCI-H23 lung was > 100 µM each time. In addition, the TGI in the test with SF-268 CNS, in the test with SF-539 CNS, with SK-OV-3 ovarian and with SNB-19 CNS was > 100 µM in each case.
Take `COc1ccc(-c2nc(N)c3ncn(C4OC(CO)C(O)C4O)c3n2)cc1` (configuration not stated): the TGI in the test on A549 NSCLC, in the test on ACHN renal, with EKVX NSCLC, in the test on HOP-62 NSCLC, with HOP-92 NSCLC and with NCI-H23 lung was > 100 µM each time. In addition, the TGI in the test with SF-268 CNS, in the test with SF-539 CNS, in the test with SK-OV-3 ovarian and with SNB-19 CNS was > 100 µM each time.
As to `C[C@]12CC(C#N)C(=O)C(O)=C1CC[C@@H]1C2CC[C@@]2(C)C1CC[C@@H]2O` (some centres not stated), the TGI in the test with A549 NSCLC is > 100 µM; with ACHN renal it was > 100 µM; with EKVX NSCLC, > 100 µM; with HOP-62 NSCLC, > 100 µM; in the test with HOP-92 NSCLC it was 76.4 µM; in the test on NCI-H23 lung, > 100 µM. Also, the TGI in the test with SF-268 CNS, in the test on SF-539 CNS, in the test on SK-OV-3 ovarian and in the test on SNB-19 CNS was > 100 µM each time.
Regarding `COC1OC(CBr)C(OC(c2ccccc2)(c2ccccc2)c2ccccc2)C(OC(c2ccccc2)(c2ccccc2)c2ccccc2)C1OC(c1ccccc1)(c1ccccc1)c1ccccc1` (configuration not stated), the TGI in the test with A549 NSCLC is > 100 µM; with ACHN renal it was > 100 µM; in the test with EKVX NSCLC, 70.2 µM; in the test on HOP-62 NSCLC, > 100 µM; in the test on HOP-92 NSCLC it was 52.4 µM; in the test with NCI-H23 lung, > 100 µM. For the same compound, the TGI is > 100 µM in the test with SF-268 CNS, 68.7 µM in the test on SF-539 CNS, 60.7 µM in the test on SK-OV-3 ovarian and > 100 µM in the test with SNB-19 CNS.
Turning to `COc1cc(C)[nH]c(=O)c1CN1CCc2c(Cl)cc([C@H](OC)C3COC3)c(Cl)c2C1=O`, the GI50 in the test with A549 NSCLC, in the test on ACHN renal, in the test with EKVX NSCLC, in the test with HOP-62 NSCLC, with HOP-92 NSCLC and in the test with NCI-H23 lung was > 100 µM each time. Also, the GI50 with SF-268 CNS, with SF-539 CNS, in the test with SK-OV-3 ovarian and with SNB-19 CNS was > 100 µM in each case. For the same compound, the TGI in the test with A549 NSCLC, with ACHN renal, in the test on EKVX NSCLC, in the test on HOP-62 NSCLC, with HOP-92 NSCLC and with NCI-H23 lung was > 100 µM each time. Moreover, the TGI in the test with SF-268 CNS, in the test on SF-539 CNS, with SK-OV-3 ovarian and with SNB-19 CNS was > 100 µM in each case.
As to `COc1cccc(-c2nc(-c3ccc(NC(=O)c4ccccc4)cc3)[nH]c2-c2ccnc(Br)c2)c1`, the GI50 with A549 NSCLC is 4.07 µM; in the test on ACHN renal, 2.95 µM; in the test on EKVX NSCLC, 2.18 µM; with HOP-62 NSCLC, 2.82 µM; in the test on HOP-92 NSCLC, 6.26 µM; with NCI-H23 lung it was 2.82 µM. Besides, the GI50 in the test on SF-268 CNS is 6.13 µM; with SF-539 CNS, 1.59 µM; in the test with SK-OV-3 ovarian, 3.05 µM; with SNB-19 CNS, 3.87 µM. Further, the TGI with A549 NSCLC is > 100 µM; in the test on ACHN renal, > 100 µM; in the test with EKVX NSCLC, 9.47 µM; in the test on HOP-62 NSCLC, > 100 µM; in the test on HOP-92 NSCLC it was > 100 µM; in the test with NCI-H23 lung it was > 100 µM. Also, the TGI with SF-268 CNS was > 100 µM; with SF-539 CNS it was 12.6 µM; in the test on SK-OV-3 ovarian it was 8.24 µM; with SNB-19 CNS, > 100 µM.
In the case of `NC1=NC(c2ccccc2)CC(c2cc(Cl)cc(Br)c2O)=N1` (configuration not stated), the TGI in the test on A549 NSCLC was 34.6 µM; with ACHN renal it was 31.5 µM; with EKVX NSCLC it was 28.2 µM; with HOP-62 NSCLC, 25.1 µM; with HOP-92 NSCLC, 38.2 µM; in the test on NCI-H23 lung, 26 µM. Also, the TGI in the test with SF-268 CNS was 26.9 µM; in the test with SF-539 CNS it was 25.4 µM; in the test with SK-OV-3 ovarian, 42.7 µM; with SNB-19 CNS, 33.3 µM.
As for `COc1ccccc1N1CCN(C(=O)c2ccc(NS(=O)(=O)c3cccc4cccnc34)cc2)CC1`, the GI50 in the test with A549 NSCLC was > 100 µM; in the test with ACHN renal, > 71 µM; in the test on EKVX NSCLC, > 100 µM; with HOP-62 NSCLC, > 49.7 µM; in the test with HOP-92 NSCLC, > 100 µM; with NCI-H23 lung it was > 67.2 µM. Also, the GI50 was > 48.3 µM with SF-268 CNS, > 54.4 µM in the test with SF-539 CNS, > 45.5 µM with SK-OV-3 ovarian and 29.5 µM in the test on SNB-19 CNS. For the same compound, the TGI in the test with A549 NSCLC, with ACHN renal, in the test on EKVX NSCLC, in the test on HOP-62 NSCLC, with HOP-92 NSCLC and in the test with NCI-H23 lung was > 100 µM each time. For the same compound, the TGI is > 100 µM with SF-268 CNS, > 100 µM with SF-539 CNS, > 83.3 µM with SK-OV-3 ovarian and > 85.5 µM with SNB-19 CNS.
For the compound `O=C(c1cc2c(C(F)(F)F)onc2c2ccccc12)C(F)(F)F`, the TGI was > 72.1 µM in the test with A549 NSCLC; 14 µM in the test with ACHN renal; > 33.3 µM in the test with EKVX NSCLC; 11.3 µM in the test with HOP-62 NSCLC; 4.99 µM in the test on HOP-92 NSCLC; 4.25 µM with NCI-H23 lung. In addition, the TGI is 19.9 µM with SF-268 CNS, 15.8 µM with SF-539 CNS, 46.7 µM in the test on SK-OV-3 ovarian and > 27.9 µM in the test with SNB-19 CNS.
Turning to `O=C1/C=C/[C@@H](O)[C@@H]2C[C@@H](O)C[C@H]2/C=C/CCC[C@H](CO)O1`, the GI50 with A549 NSCLC is 3.65 µM; with ACHN renal, 3.97 µM; in the test with EKVX NSCLC, 3.11 µM; with HOP-62 NSCLC, 3.66 µM; in the test on HOP-92 NSCLC, 2.76 µM; with NCI-H23 lung, 2.25 µM. The GI50 with SF-268 CNS is 1.33 µM; with SF-539 CNS, 3.7 µM; in the test with SK-OV-3 ovarian it was 4.62 µM; in the test on SNB-19 CNS, 3.09 µM. The TGI in the test on A549 NSCLC, with ACHN renal, in the test on EKVX NSCLC, in the test on HOP-62 NSCLC, in the test with HOP-92 NSCLC and with NCI-H23 lung was > 100 µM in each case. Besides, the TGI in the test on SF-268 CNS, in the test on SF-539 CNS, in the test with SK-OV-3 ovarian and in the test on SNB-19 CNS was > 100 µM each time.
On to `O=c1ccccc(-c2ccc(-c3ccco3)cc2)c1O`, for which the GI50 is 1.39 µM with A549 NSCLC; 0.437 µM in the test on ACHN renal; 0.406 µM in the test on EKVX NSCLC; 0.694 µM in the test with HOP-62 NSCLC; 2.05 µM in the test with HOP-92 NSCLC; 1.22 µM in the test on NCI-H23 lung. Besides, the GI50 is 0.761 µM in the test on SF-268 CNS, 0.703 µM in the test with SF-539 CNS, 1.22 µM with SK-OV-3 ovarian and 1.04 µM in the test on SNB-19 CNS. Further, the TGI in the test on A549 NSCLC was found to be 47.5 µM; with ACHN renal, 12 µM; in the test on EKVX NSCLC, 7.9 µM; in the test with HOP-62 NSCLC, 12.9 µM; in the test with HOP-92 NSCLC it was 39.8 µM; in the test with NCI-H23 lung, 15 µM. Moreover, the TGI in the test on SF-268 CNS is > 100 µM; in the test on SF-539 CNS, 6.38 µM; in the test with SK-OV-3 ovarian it was 24 µM; with SNB-19 CNS it was 22.9 µM.
Regarding `CC(C)Cc1ccc(C(C)/C=C2\CCC(CN3CCCC3)C2=O)cc1` (configuration not stated), the TGI in the test with A549 NSCLC was 35 µM; with ACHN renal, 24.3 µM; in the test with EKVX NSCLC, 33.3 µM; with HOP-62 NSCLC it was 26.1 µM; with HOP-92 NSCLC it was 38 µM; with NCI-H23 lung it was 26.6 µM. For the same compound, the TGI in the test on SF-268 CNS is 12.3 µM; with SF-539 CNS, 15.4 µM; with SK-OV-3 ovarian it was 33.9 µM; in the test on SNB-19 CNS it was 26.4 µM.
Take `CC1(C)CCC2(C(=O)O)CC[C@]3(C)C(=CCC4C5(C)CC[C@H](OC6OC(C(=O)O)C(O)C(OC7OC(CO)C(O)C(O)C7O)C6OC6OC(CO)C(O)C(O)C6O)C(C)(C)C5CCC43C)C2C1` (some centres not stated): the GI50 in the test on A549 NSCLC is > 100 µM; with EKVX NSCLC, > 100 µM; in the test with HOP-62 NSCLC, > 100 µM; with HOP-92 NSCLC it was > 100 µM; with NCI-H23 lung, 20.2 µM; in the test with SF-268 CNS, > 100 µM. For the same compound, the GI50 with SF-539 CNS, in the test with SK-OV-3 ovarian and in the test with SNB-19 CNS was > 100 µM in each case. Also, the TGI in the test on A549 NSCLC was > 100 µM; in the test with EKVX NSCLC it was > 100 µM; in the test on HOP-62 NSCLC it was > 100 µM; in the test on HOP-92 NSCLC, > 100 µM; in the test with NCI-H23 lung it was 42.7 µM; in the test with SF-268 CNS, > 100 µM. Moreover, the TGI in the test on SF-539 CNS, with SK-OV-3 ovarian and in the test on SNB-19 CNS was > 100 µM throughout.
Regarding `CCCCCCCC(=O)OCC1OC(n2cc(F)c(=O)[nH]c2=O)C(NC(=O)OCc2ccccc2)C(OC(=O)CCCCCCC)C1O` (configuration not stated), the TGI in the test with A549 NSCLC was > 100 µM; with ACHN renal, > 100 µM; with EKVX NSCLC it was > 100 µM; with HOP-62 NSCLC it was > 100 µM; in the test on HOP-92 NSCLC, 61.4 µM; with NCI-H23 lung it was > 100 µM. Besides, the figures for the TGI with SF-268 CNS, with SF-539 CNS and with SK-OV-3 ovarian were > 100 µM, 74.4 µM and > 100 µM, respectively.

(Values after PubChem BioAssay (NCI).)
